# Patent US11596623B2, “Methods for treating virus infection or proliferation” (HOWARD UNIVERSITY, priority 2018, dated 2023)
# Where two headings read alike, the source gives them in different places.
# Experiments:
# [1] = biological target: T1, RACK1A Y248 phosphorylation (Arabidopsis thaliana, UniProt O24456); assay: ABA-induced RACK1A Y248 phosphorylation in seedlings, western blot; assay type: in vivo; conditions: 10 μM ABA, 12 hours, one-week old seedlings
# T1 construct: from tissue; host or cells: Arabidopsis seedlings or plants (wild type); lysates
# T1 sequence (O24456 whole entry): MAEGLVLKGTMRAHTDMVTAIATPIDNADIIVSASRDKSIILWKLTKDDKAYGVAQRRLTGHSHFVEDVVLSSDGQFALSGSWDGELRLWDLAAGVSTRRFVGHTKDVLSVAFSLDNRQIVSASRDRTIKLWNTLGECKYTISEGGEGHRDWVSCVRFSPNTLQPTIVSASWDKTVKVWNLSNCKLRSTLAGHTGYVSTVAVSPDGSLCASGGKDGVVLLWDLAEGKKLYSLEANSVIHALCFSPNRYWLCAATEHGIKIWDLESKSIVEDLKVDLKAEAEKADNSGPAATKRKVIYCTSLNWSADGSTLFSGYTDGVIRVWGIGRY
# Experimental: One-week old Arabidopsis seedlings were treated with 10 μM of stress hormone Abscisic acid (ABA) in the presence/absence of the inhibitor compounds for 12 hours in a growth chamber (overnight) at 22° C. Lysates were probed with an antibody raised to detect phosphorylated Y248 residue of RACK1A protein in Arabidopsis. Lysates from rack1a-1 knock-out mutant seedlings grown and treated similarly as the wild-type seedlings were used as a negative control. The compounds were dissolved in DMSO (D) and ABA was dissolved in methanol (M).
# Proteins were separated by SDS-PAGE (25 μg loaded in each lane), transferred to nitrocellulose membranes (Amersham Inc., Piscataway, N.J., USA), and blocked with 5% nonfat milk for 60 min at room temperature. Membranes were incubated overnight at 4° C. with primary antibody, followed by incubation with a horseradish peroxidase-coupled secondary antibody and detection with enhanced chemiluminescence (Pierce, Rockford, Ill., USA), according to standard methods. Membranes were stripped with stripping buffer (100 mM 2-mercaptoethanol, 2% SDS, 62.5 mM Tris-HCl, pH 6.8), washed with PBS-0.1% Tween-20, and used to detect additional proteins. For Arabidopsis lysates one-week old seedlings were treated with 10 uM of ABA in the presence/absence of the inhibitor compounds for 12 hours in a growth chamber (overnight) at 22° C. mostly in the dark. […]
# HEp-2 cells = assay: Trypan blue exclusion cell viability; assay type: cell-based; conditions: 24-hour treatment
# Experimental: In order to assess whether the compounds are producing any toxicity that can led to the cell deaths, we evaluated the cell viability by the trypan blue exclusion method. As long-term inhibition of RACK1 expression has been reported to cell cycle arrest, we limited our experimental treatments to 24 h and evaluated the cell viability of almost full confluent cells after 24 h of compound treatment.
# In table 2, the viability of cells was measured with Trypan blue exclusion assay in a Cellometer (Nexcelom, Lawrence, Mass.). The percentage survival of the compound treated cells was evaluated along with the DMSO treated cells. The values represent the mean±SE of three separate well based replicates.
# HSV1-Luc (R8411) = assay: HSV1-Luc bioluminescence luciferase assay in HEp-2 cells; assay type: cell-based, HSV-1; design: HSV-1 proliferation (luciferase signal): dose or concentration left out as unconfirmed
# Experimental: (A) Hep-2 cells were incubated with the indicated compounds in the presence of HSV1-Luc virus at a concentration of 4×10^6 pfu/ml media. (B) Quantification of the luciferase signal from the samples in panel (A). Signals from three replicates from two separate experiments were combined to generate the average and the standard error bar.
# (§1) To 80-90% confluent HEp-2 cells, HSV-1-Luc (R8411) are added at a concentration of 2×10e^6 pfu/ml along with indicated concentration of inhibitor compounds. After the described incubation period, luciferase activity is evaluated from bioluminescence images acquired by a Perkin Elmer IVIS Spectrum Imaging system immediately after adding luciferase substrate (D-luciferin, Gold Bio Technology) at a concentration of 400 μg/mL in medium. Bioluminescence intensity in different wells is quantified in units of photons per second per centimetre squared per steradian (p/s/cm^2/sr) by drawing a polygonal region of interest over the signals in images using Living Image 3.0 software (Caliper Life Sciences).
# as §1, with “cells, HSV1-Luc” for “cells, HSV-1-Luc”, “(R8411) was” for “(R8411) are”, “activity was” for “activity is”, “wells was” for “wells is”, “per centimeter” for “per centimetre”
# To visualize the effect of the drugs on the proliferation of HSV-1, a luciferase tagged HSV-1 F strain expressing luciferase (R8411 mutant) under the control of ICP27 promoter was obtained [Horsburgh B C, Hubinette M M, Tufaro F. Genetic manipulation of herpes simplex virus using bacterial artificial chromosomes. Methods Enzymol. 1999; 306:337-52]. […] The same samples after incubation of 48 h were used to assay for HSV-1 ICP0 and RACK1 protein expression (B of FIG. 5). Depletion of RACK1 by the compounds correlated with the depletion of the viral ICP0 protein confirming earlier results shown in B of FIG. 3.
SMILES,ABA-induced RACK1A Y248 phosphorylation [1],"HEp-2 Cell viability, Mean (HEp-2 cells; 10 μM)","HEp-2 Cell viability, Mean (HEp-2 cells; 100 μM)",HSV-1 proliferation (luciferase signal) (HSV1-Luc (R8411)),"efficacy compared with acyclovir (HSV1-Luc (R8411); HSV1-Luc, acyclovir 10 μM)","HSV-1 proliferation (luciferase signal) (HSV1-Luc (R8411); co-treatment of compound and virus, dose series)","concentration from which inhibition of HSV-1 (HSV1-Luc) proliferation starts (HSV1-Luc (R8411); in vitro, luciferase signal)","efficacy relative to SD-29 (HSV1-Luc (R8411); starting concentration, HSV-1 luciferase signal)"
Nn1c(S)nnc1-c1ccc(F)cc1 [SD-29],prevented the ABA-induced Y248 phosphorylation,94.0%,92.7%,much less efficacy,,,,
Nn1c(S)nnc1-c1cc(Cl)cc(Cl)c1 [SD29-14],prevented the ABA-induced Y248 phosphorylation,97.5%,93.7%,significantly inhibited the HSV-1 proliferation,slightly higher level,strong inhibition of HSV-1 proliferation in a dose dependent manner,1 µM,100 times
